Assay results reported in the NIST ThermoML archive (doi:10.1016/j.jct.2018.07.011).

Assay: relative permittivity at various frequencies (dimensionless)
Details: Reentrant cavity resonator

C=C(F)C(F)(F)F [2,3,3,3-tetrafluoro-1-propene]
Details	relative permittivity
248.51 K, 10580 kPa, Liquid, Frequency=120 MHz	11.2191
248.71 K, 8271 kPa, Liquid, Frequency=120 MHz	11.1539
248.95 K, 6475 kPa, Liquid, Frequency=120 MHz	11.0761
249.16 K, 4746 kPa, Liquid, Frequency=120 MHz	11.0131
249.37 K, 3089 kPa, Liquid, Frequency=120 MHz	10.9467
249.67 K, 10580 kPa, Liquid, Frequency=120 MHz	11.1976
249.71 K, 8272 kPa, Liquid, Frequency=120 MHz	11.1217
249.75 K, 6476 kPa, Liquid, Frequency=120 MHz	11.0617
249.76 K, 4750 kPa, Liquid, Frequency=120 MHz	10.9998
249.77 K, 3089 kPa, Liquid, Frequency=120 MHz	10.9379
273.14 K, 10470 kPa, Liquid, Frequency=120 MHz	9.47583
273.41 K, 10970 kPa, Liquid, Frequency=120 MHz	9.48739
273.5 K, 7893 kPa, Liquid, Frequency=120 MHz	9.37498
273.59 K, 8235 kPa, Liquid, Frequency=120 MHz	9.38477
273.69 K, 4628 kPa, Liquid, Frequency=120 MHz	9.24224
273.79 K, 5794 kPa, Liquid, Frequency=120 MHz	9.28399
273.95 K, 1601 kPa, Liquid, Frequency=120 MHz	9.10293
274.32 K, 3368 kPa, Liquid, Frequency=120 MHz	9.17004
275.05 K, 1116 kPa, Liquid, Frequency=120 MHz	9.04939
297.54 K, 7675 kPa, Liquid, Frequency=120 MHz	7.93035
297.56 K, 247.8 kPa, Gas, Frequency=340 MHz	1.03846
297.57 K, 4942 kPa, Liquid, Frequency=120 MHz	7.79441
297.57 K, 10760 kPa, Liquid, Frequency=120 MHz	8.06626
297.58 K, 2537 kPa, Liquid, Frequency=120 MHz	7.65994
297.61 K, 259.6 kPa, Gas, Frequency=340 MHz	1.04022
297.63 K, 225.5 kPa, Gas, Frequency=340 MHz	1.03469
297.67 K, 100.9 kPa, Gas, Frequency=340 MHz	1.01502
321.5 K, 203 kPa, Gas, Frequency=340 MHz	1.02682
321.53 K, 644.4 kPa, Gas, Frequency=340 MHz	1.09027
321.55 K, 817.8 kPa, Gas, Frequency=340 MHz	1.11132
321.63 K, 4262 kPa, Liquid, Frequency=120 MHz	6.51012
321.65 K, 7089 kPa, Liquid, Frequency=120 MHz	6.70204
321.65 K, 10590 kPa, Liquid, Frequency=120 MHz	6.89633
345.73 K, 218.5 kPa, Gas, Frequency=340 MHz	1.02515
345.74 K, 874.9 kPa, Gas, Frequency=340 MHz	1.10115
345.75 K, 693 kPa, Gas, Frequency=340 MHz	1.08291
345.89 K, 4404 kPa, Liquid, Frequency=120 MHz	5.30782
345.93 K, 6822 kPa, Liquid, Frequency=120 MHz	5.57121
346.01 K, 10290 kPa, Liquid, Frequency=120 MHz	5.83949
365.22 K, 908.6 kPa, Gas, Frequency=340 MHz	1.09359
365.25 K, 713.8 kPa, Gas, Frequency=340 MHz	1.07604
365.3 K, 230.9 kPa, Gas, Frequency=340 MHz	1.0241

[Ar] [argon]
Gas, Frequency=340 MHz
Details	relative permittivity
272.94 K, 8533 kPa	1.05077
273.04 K, 5986 kPa	1.03462
273.17 K, 3359 kPa	1.01869
297.44 K, 9503 kPa	1.05146
297.45 K, 3675 kPa	1.01893
297.45 K, 6614 kPa	1.03509
321.92 K, 4005 kPa	1.01899
321.93 K, 7248 kPa	1.03523

O=C=O [carbon dioxide]
Details	relative permittivity
234.7 K, 5002 kPa, Liquid, Frequency=270 MHz	1.73109
234.76 K, 4012 kPa, Liquid, Frequency=270 MHz	1.729
234.77 K, 2015 kPa, Liquid, Frequency=270 MHz	1.72473
234.78 K, 3015 kPa, Liquid, Frequency=270 MHz	1.72689
235.13 K, 6031 kPa, Liquid, Frequency=270 MHz	1.73287
248.98 K, 4006 kPa, Liquid, Frequency=270 MHz	1.68089
249.12 K, 3018 kPa, Liquid, Frequency=270 MHz	1.67791
249.15 K, 2012 kPa, Liquid, Frequency=270 MHz	1.67486
251.38 K, 6015 kPa, Liquid, Frequency=270 MHz	1.68401
251.72 K, 5017 kPa, Liquid, Frequency=270 MHz	1.6809
252.7 K, 6996 kPa, Liquid, Frequency=270 MHz	1.685
273.6 K, 7004 kPa, Liquid, Frequency=270 MHz	1.59893
273.75 K, 6019 kPa, Liquid, Frequency=270 MHz	1.5936
274.12 K, 5019 kPa, Liquid, Frequency=270 MHz	1.58749
274.66 K, 4024 kPa, Liquid, Frequency=270 MHz	1.58054
297.38 K, 1176 kPa, Gas, Frequency=340 MHz	1.01138
297.57 K, 7002 kPa, Liquid, Frequency=270 MHz	1.45192
297.6 K, 5992 kPa, Gas, Frequency=340 MHz	1.10291
297.61 K, 6991 kPa, Liquid, Frequency=270 MHz	1.45145
297.64 K, 2005 kPa, Gas, Frequency=340 MHz	1.02052
297.7 K, 3002 kPa, Gas, Frequency=340 MHz	1.03319
297.73 K, 3998 kPa, Gas, Frequency=340 MHz	1.0487
297.75 K, 4570 kPa, Gas, Frequency=340 MHz	1.05962

F/C=C/C(F)(F)F [trans-1,3,3,3-tetrafluoropropene]
Details	relative permittivity
248.98 K, 2078 kPa, Liquid, Frequency=200 MHz	3.44336
249 K, 4121 kPa, Liquid, Frequency=200 MHz	3.45458
249.02 K, 6251 kPa, Liquid, Frequency=200 MHz	3.46583
249.06 K, 8448 kPa, Liquid, Frequency=200 MHz	3.47696
249.07 K, 10680 kPa, Liquid, Frequency=200 MHz	3.48805
273.01 K, 7894 kPa, Liquid, Frequency=200 MHz	3.19554
273.19 K, 10470 kPa, Liquid, Frequency=200 MHz	3.21071
273.23 K, 4627 kPa, Liquid, Frequency=200 MHz	3.17426
273.36 K, 1598 kPa, Liquid, Frequency=200 MHz	3.15254
273.46 K, 486 kPa, Liquid, Frequency=200 MHz	3.14403
273.66 K, 73.9 kPa, Gas, Frequency=340 MHz	1.00498
274.29 K, 139 kPa, Gas, Frequency=340 MHz	1.00927
297.59 K, 79.6 kPa, Gas, Frequency=340 MHz	1.00458
297.59 K, 240.4 kPa, Gas, Frequency=340 MHz	1.01364
297.6 K, 349.7 kPa, Gas, Frequency=340 MHz	1.02033
297.63 K, 5735 kPa, Liquid, Frequency=200 MHz	2.92689
297.63 K, 10470 kPa, Liquid, Frequency=200 MHz	2.96416
297.64 K, 140.5 kPa, Gas, Frequency=340 MHz	1.00794
297.65 K, 7982 kPa, Liquid, Frequency=200 MHz	2.94513
297.67 K, 1491 kPa, Liquid, Frequency=200 MHz	2.88752
297.67 K, 3490 kPa, Liquid, Frequency=200 MHz	2.90668
321.55 K, 211.2 kPa, Gas, Frequency=340 MHz	1.01063
321.63 K, 210.1 kPa, Gas, Frequency=340 MHz	1.0105
321.76 K, 3999 kPa, Liquid, Frequency=200 MHz	2.66845
321.78 K, 7249 kPa, Liquid, Frequency=200 MHz	2.70714
321.79 K, 10980 kPa, Liquid, Frequency=200 MHz	2.74469
345.96 K, 227.2 kPa, Gas, Frequency=340 MHz	1.01022
345.97 K, 225.2 kPa, Gas, Frequency=340 MHz	1.01005
346.5 K, 4377 kPa, Liquid, Frequency=200 MHz	2.42553
346.53 K, 6645 kPa, Liquid, Frequency=200 MHz	2.46858
346.59 K, 9481 kPa, Liquid, Frequency=200 MHz	2.51185
365.54 K, 236.9 kPa, Gas, Frequency=340 MHz	1.00981
365.79 K, 239.2 kPa, Gas, Frequency=340 MHz	1.00997
365.83 K, 4248 kPa, Liquid, Frequency=200 MHz	2.19675
365.87 K, 6046 kPa, Liquid, Frequency=200 MHz	2.25994
365.93 K, 9015 kPa, Liquid, Frequency=200 MHz	2.33081
